Source: US20260015358A1, “BICYCLIC DERIVATIVES, COMPOSITIONS AND USES THEREOF” (Danatlas Pharmaceuticals Co., Ltd., priority 2023, published 2026)
pIC50: −log10 of the molar value.

Experiments:
[1] = target: T1, WRN [UniPro: Q14191 (WRN_HUMAN), N500-C946] (Homo sapiens (Human), UniProt Q14191); assay: WRN ATPase assay (ADP-Glo); type: biochemical; conditions: WRN enzymatic activity assay
[2] = target: T1, WRN [UniPro: Q14191 (WRN_HUMAN), N500-C946]; assay: WRN unwinding assay (FORKF DNA, fluorescence); type: biochemical; conditions: Table 14

T1 sequence (Q14191 500-946): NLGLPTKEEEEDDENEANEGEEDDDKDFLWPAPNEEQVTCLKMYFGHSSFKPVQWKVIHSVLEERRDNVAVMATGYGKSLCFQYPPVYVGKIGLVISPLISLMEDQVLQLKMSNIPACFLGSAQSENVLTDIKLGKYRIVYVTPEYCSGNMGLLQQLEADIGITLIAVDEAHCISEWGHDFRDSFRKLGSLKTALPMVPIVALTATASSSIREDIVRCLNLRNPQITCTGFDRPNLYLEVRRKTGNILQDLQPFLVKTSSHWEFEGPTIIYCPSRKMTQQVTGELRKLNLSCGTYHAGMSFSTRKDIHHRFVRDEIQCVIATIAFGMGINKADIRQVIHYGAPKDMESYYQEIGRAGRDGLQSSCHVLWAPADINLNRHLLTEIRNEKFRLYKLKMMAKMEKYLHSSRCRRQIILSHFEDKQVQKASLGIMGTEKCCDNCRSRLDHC

pIC50 [1] | pIC50 [2] | SMILES
6.00 to 7.00 | > 7.00 | CCc1c(N2CCN(C(=O)CNC(=O)c3ccccc3F)CC2)c(=O)n2nc(C3=CCOCC3)nc2n1CC(=O)Nc1ccc(C)s1 [Example 153, N-(2-(4-(2-(3,6-Dihydro-2H-pyran-4-yl)-5-ethyl-4-(2-((5-methylthiophen-2-yl)amino)-2-oxoethyl)-7-oxo-4,7-dihydro-[1,2,4]triazolo[1,5-a]pyrimidin-6-yl)piperazin-1-yl)-2-oxoethyl)-2-fluorobenzamide]
> 7.00 | > 7.00 | CCc1c(N2CCN(C(=O)CNC(=O)c3ccccc3F)CC2)c(=O)n2nc(C3=CCOCC3)nc2n1CC(=O)Nc1cc(C)cs1 [Example 154, N-(2-(4-(2-(3,6-Dihydro-2H-pyran-4-yl)-5-ethyl-4-(2-((4-methylthiophen-2-yl)amino)-2-oxoethyl)-7-oxo-4,7-dihydro-[1,2,4]triazolo[1,5-a]pyrimidin-6-yl)piperazin-1-yl)-2-oxoethyl)-2-fluorobenzamide]
> 7.00 | > 7.00 | CCc1c(N2CCN(C(=O)CNC(=O)c3ccccc3F)CC2)c(=O)n2nc(C3=CCOCC3)nc2n1CC(=O)Nc1cnc(C(F)(F)F)s1 [Example 157, N-(2-(4-(2-(3,6-Dihydro-2H-pyran-4-yl)-5-ethyl-7-oxo-4-(2-oxo-2-((2-(trifluoromethyl)thiazol-5-yl)amino)ethyl)-4,7-dihydro-[1,2,4]triazolo[1,5-a]pyrimidin-6-yl)piperazin-1-yl)-2-oxoethyl)-2-fluorobenzamide]
> 7.00 | > 7.00 | CCc1c(N2CCN(C(=O)CNC(=O)c3ccccc3F)CC2)c(=O)n2nc(C3=CCOCC3)nc2n1CC(=O)Nc1cc(Br)cs1 [Example 161, N-(2-(4-(4-(2-((4-Bromothiophen-2-yl)amino)-2-oxoethyl)-2-(3,6-dihydro-2H-pyran-4-yl)-5-ethyl-7-oxo-4,7-dihydro-[1,2,4]triazolo[1,5-a]pyrimidin-6-yl)piperazin-1-yl)-2-oxoethyl)-2-fluorobenzamide]
6.00 to 7.00 | 6.00 to 7.00 | CCc1c(N2CCN(C(=O)CNC(=O)c3ccccc3F)CC2)c(=O)n2nc(C3=CCOCC3)nc2n1CC(=O)Nc1cc(C(F)(F)F)n(C)n1 [Example 162, N-(2-(4-(2-(3,6-Dihydro-2H-pyran-4-yl)-5-ethyl-4-(2-((1-methyl-5-(trifluoromethyl)-1H-pyrazol-3-yl)amino)-2-oxoethyl)-7-oxo-4,7-dihydro-[1,2,4]triazolo[1,5-a]pyrimidin-6-yl)piperazin-1-yl)-2-oxoethyl)-2-fluorobenzamide]
> 7.00 | > 7.00 | CCc1c(N2CCN(C(=O)CNC(=O)c3ccccc3F)CC2)c(=O)n2nc(C3=CCOCC3)nc2n1CC(=O)Nc1ccc(C(F)(F)F)nc1Cl [Example 163, N-(2-(4-(4-(2-((2-Chloro-6-(trifluoromethyl)pyridin-3-yl)amino)-2-oxoethyl)-2-(3,6-dihydro-2H-pyran-4-yl)-5-ethyl-7-oxo-4,7-dihydro-[1,2,4]triazolo[1,5-a]pyrimidin-6-yl)piperazin-1-yl)-2-oxoethyl)-2-fluorobenzamide]
> 7.00 | > 7.00 | CCc1c(N2CCN(C(=O)CNC(=O)C3CC3)CC2)c(=O)n2nc(C3=CCOCC3)nc2n1CC(=O)Nc1ccc(C(F)(F)F)cc1Cl [Example 165, N-(2-(4-(4-(2-((2-Chloro-4-(trifluoromethyl)phenyl)amino)-2-oxoethyl)-2-(3,6-dihydro-2H-pyran-4-yl)-5-ethyl-7-oxo-4,7-dihydro-[1,2,4]triazolo[1,5-a]pyrimidin-6-yl)piperazin-1-yl)-2-oxoethyl)cyclopropanecarboxamide]
6.00 to 7.00 | > 7.00 | CCc1c(N2CCN(C(=O)CNC(=O)N3CCCC3)CC2)c(=O)n2nc(C3=CCOCC3)nc2n1CC(=O)Nc1ccc(C(F)(F)F)cc1Cl [Example 166, N-(2-(4-(4-(2-((2-Chloro-4-(trifluoromethyl)phenyl)amino)-2-oxoethyl)-2-(3,6-dihydro-2H-pyran-4-yl)-5-ethyl-7-oxo-4,7-dihydro-[1,2,4]triazolo[1,5-a]pyrimidin-6-yl)piperazin-1-yl)-2-oxoethyl)pyrrolidine-1-carboxamide]
